Laboratory results from publication PMC3530649 (Journal of the American Chemical Society, 2012).

T1: (E)-β-farnesene synthase (EBFS) (Mentha x piperita, UniProt O48935)
T1 sequence (O48935 1-550): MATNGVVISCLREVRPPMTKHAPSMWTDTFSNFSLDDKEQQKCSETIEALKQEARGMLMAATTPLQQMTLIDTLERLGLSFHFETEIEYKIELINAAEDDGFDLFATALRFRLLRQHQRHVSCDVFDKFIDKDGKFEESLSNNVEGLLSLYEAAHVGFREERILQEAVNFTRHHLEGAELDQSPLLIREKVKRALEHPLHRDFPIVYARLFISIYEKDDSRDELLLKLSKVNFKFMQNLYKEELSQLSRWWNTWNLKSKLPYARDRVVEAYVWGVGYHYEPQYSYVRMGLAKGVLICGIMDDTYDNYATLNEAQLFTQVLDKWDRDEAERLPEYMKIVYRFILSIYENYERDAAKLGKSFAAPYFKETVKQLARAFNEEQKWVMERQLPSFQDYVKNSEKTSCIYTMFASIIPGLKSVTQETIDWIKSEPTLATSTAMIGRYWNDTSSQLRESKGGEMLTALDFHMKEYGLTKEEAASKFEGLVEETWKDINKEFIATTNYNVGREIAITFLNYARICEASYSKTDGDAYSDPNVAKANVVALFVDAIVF


Legend:
[1] = target: T1, (E)-β-farnesene synthase (EBFS); assay: steady-state inhibition, radiometric microassay; type: biochemical
[2] = substrate: CC(C)=CCC/C(C)=C/CC/C(C)=C/CO[P@@](=O)(O)OP(=O)(O)O; assay: purified protein; conditions: labelled compound (tritiated)
[3] = substrate: C=CC(C)(CC/C=C(\C)CCC=C(C)C)OP(=O)(O)OP(=O)(O)O; assay: steady-state kinetics, radiometric microassay; type: biochemical, Mentha x piperita; conditions: labelled compound ((3RS)-(1Z)-trans-[1-3H1]NDP), racemic
[4] = substrate: CC(C)=CCC/C(C)=C/CC/C(C)=C(\F)COP(=O)(O)OP(=O)(O)O; assay: steady-state kinetics, radiometric microassay; type: biochemical, Mentha x piperita; conditions: labelled compound ((1RS)-2-fluoro[1-3H1]FDP)

| Molecule | Ki [1] | Km [2] | Km [3] | Km [4] |
| --- | --- | --- | --- | --- |
| CC(C)=CCC/C(C)=C/CC/C(C)=C(\F)COP(=O)(O)OP(=O)(O)O [2F-3, (2Z,6E)-2-fluorofarnesyl diphosphate] | 1300 ± 100 nM | – | – | – |
| CC(C)=CCC/C(C)=C/CC/C(=C/COP(=O)(O)OP(=O)(O)O)C(F)(F)F [3CF3-3, (6E)-3-trifluoromethylfarnesyl diphosphate] | 1600 ± 200 nM | – | – | – |
| CC(C)=CCC/C(C)=C/CCC(=CCOP(=O)(O)OP(=O)(O)O)CF [3CH2F-3, (6E)-3-fluoromethylfarnesyl diphosphate] | 2300 ± 200 nM | – | – | – |
| (E)-β-farnesene synthase (EBFS) (Mentha x piperita) (protein) MATNGVVISCLREVRPPMTKHAPSMWTDTFSNFSLDDKEQQKCSETIEALKQEARGMLMAATTPLQQMTLIDTLERLGLSFHFETEIEYKIELINAAEDDGFDLFATALRFRLLRQHQRHVSCDVFDKFIDKDGKFEESLSNNVEGLLSLYEAAHVGFREERILQEAVNFTRHHLEGAELDQSPLLIREKVKRALEHPLHRDFPIVYARLFISIYEKDDSRDELLLKLSKVNFKFMQNLYKEELSQLSRWWNTWNLKSKLPYARDRVVEAYVWGVGYHYEPQYSYVRMGLAKGVLICGIMDDTYDNYATLNEAQLFTQVLDKWDRDEAERLPEYMKIVYRFILSIYENYERDAAKLGKSFAAPYFKETVKQLARAFNEEQKWVMERQLPSFQDYVKNSEKTSCIYTMFASIIPGLKSVTQETIDWIKSEPTLATSTAMIGRYWNDTSSQLRESKGGEMLTALDFHMKEYGLTKEEAASKFEGLVEETWKDINKEFIATTNYNVGREIAITFLNYARICEASYSKTDGDAYSDPNVAKANVVALFVDAIVF | – | 1.8 ± 0.2 µM | 25.0 ± 4.2 µM | 1.6 ± 0.2 µM |
